Experimental data published in the NIST ThermoML archive (doi:10.1021/je800786k).

Settings: Liquid, Vibrating tube method

CCC(C)N (configuration not stated) [2-butanamine]
Settings | mass density [kg/m3]
293.15 K, 100 kPa | 725.3
293.15 K, 10000 kPa | 733.6
293.15 K, 20000 kPa | 741.2
293.15 K, 30000 kPa | 748.1
293.15 K, 40000 kPa | 754.5
293.15 K, 50000 kPa | 760.4
293.15 K, 60000 kPa | 766.1
293.15 K, 70000 kPa | 771.3
293.15 K, 80000 kPa | 776.3
293.15 K, 90000 kPa | 781.1
293.15 K, 100000 kPa | 785.5
293.15 K, 110000 kPa | 789.7
293.15 K, 120000 kPa | 793.9
293.15 K, 130000 kPa | 797.8
293.15 K, 140000 kPa | 801.5
303.15 K, 100 kPa | 715.1
303.15 K, 10000 kPa | 724.3
303.15 K, 20000 kPa | 732.4
303.15 K, 30000 kPa | 739.7
303.15 K, 40000 kPa | 746.3
303.15 K, 50000 kPa | 752.5
303.15 K, 60000 kPa | 758.3
303.15 K, 70000 kPa | 763.7
303.15 K, 80000 kPa | 768.9
303.15 K, 90000 kPa | 773.8
303.15 K, 100000 kPa | 778.4
303.15 K, 110000 kPa | 782.9
303.15 K, 120000 kPa | 787.2
303.15 K, 130000 kPa | 791.2
303.15 K, 140000 kPa | 795.2
313.15 K, 100 kPa | 705
313.15 K, 10000 kPa | 714.8
313.15 K, 20000 kPa | 723.4
313.15 K, 30000 kPa | 731.1
313.15 K, 40000 kPa | 738.2
313.15 K, 50000 kPa | 744.7
313.15 K, 60000 kPa | 750.8
313.15 K, 70000 kPa | 756.5
313.15 K, 80000 kPa | 761.9
313.15 K, 90000 kPa | 767
313.15 K, 100000 kPa | 771.8
313.15 K, 110000 kPa | 776.4
313.15 K, 120000 kPa | 780.8
313.15 K, 130000 kPa | 785.1
313.15 K, 140000 kPa | 789.1
323.15 K, 100 kPa | 694.7
323.15 K, 10000 kPa | 705.4
323.15 K, 20000 kPa | 714.5
323.15 K, 30000 kPa | 722.8
323.15 K, 40000 kPa | 730.4
323.15 K, 50000 kPa | 737.2
323.15 K, 60000 kPa | 743.6
323.15 K, 70000 kPa | 749.5
323.15 K, 80000 kPa | 755.2
323.15 K, 90000 kPa | 760.4
323.15 K, 100000 kPa | 765.4
323.15 K, 110000 kPa | 770.2
323.15 K, 120000 kPa | 774.7
323.15 K, 130000 kPa | 779
323.15 K, 140000 kPa | 783.2
333.15 K, 10000 kPa | 695.4
333.15 K, 20000 kPa | 705.2
333.15 K, 30000 kPa | 714
333.15 K, 40000 kPa | 722
333.15 K, 50000 kPa | 729.2
333.15 K, 60000 kPa | 735.8
333.15 K, 70000 kPa | 742.1
333.15 K, 80000 kPa | 748
333.15 K, 90000 kPa | 753.4
333.15 K, 100000 kPa | 758.6
333.15 K, 110000 kPa | 763.5
333.15 K, 120000 kPa | 768.1
333.15 K, 130000 kPa | 772.5
333.15 K, 140000 kPa | 776.9
343.15 K, 10000 kPa | 685.9
343.15 K, 20000 kPa | 696.6
343.15 K, 30000 kPa | 706
343.15 K, 40000 kPa | 714.3
343.15 K, 50000 kPa | 721.9
343.15 K, 60000 kPa | 728.8
343.15 K, 70000 kPa | 735.3
343.15 K, 80000 kPa | 741.3
343.15 K, 90000 kPa | 747.1
343.15 K, 100000 kPa | 752.4
343.15 K, 110000 kPa | 757.4
343.15 K, 120000 kPa | 762.3
343.15 K, 130000 kPa | 767
343.15 K, 140000 kPa | 771.3
353.15 K, 10000 kPa | 675.8
353.15 K, 20000 kPa | 687.1
353.15 K, 30000 kPa | 697.2
353.15 K, 40000 kPa | 705.8
353.15 K, 50000 kPa | 714
353.15 K, 60000 kPa | 721.2
353.15 K, 70000 kPa | 728
353.15 K, 80000 kPa | 734.2
353.15 K, 90000 kPa | 740.1
353.15 K, 100000 kPa | 745.7
353.15 K, 110000 kPa | 751
353.15 K, 120000 kPa | 756
353.15 K, 130000 kPa | 760.7
353.15 K, 140000 kPa | 765.3
363.15 K, 10000 kPa | 665.7
363.15 K, 20000 kPa | 678
363.15 K, 30000 kPa | 688.5
363.15 K, 40000 kPa | 697.8
363.15 K, 50000 kPa | 706.2
363.15 K, 60000 kPa | 713.9
363.15 K, 70000 kPa | 721
363.15 K, 80000 kPa | 727.5
363.15 K, 90000 kPa | 733.6
363.15 K, 100000 kPa | 739.4
363.15 K, 110000 kPa | 744.8
363.15 K, 120000 kPa | 749.9
363.15 K, 130000 kPa | 754.8
363.15 K, 140000 kPa | 759.5
373.15 K, 10000 kPa | 655.5
373.15 K, 20000 kPa | 668.9
373.15 K, 30000 kPa | 680.1
373.15 K, 40000 kPa | 690
373.15 K, 50000 kPa | 698.2
373.15 K, 60000 kPa | 707
373.15 K, 70000 kPa | 714
373.15 K, 80000 kPa | 720.9
373.15 K, 90000 kPa | 727.2
373.15 K, 100000 kPa | 733.2
373.15 K, 110000 kPa | 738.7
373.15 K, 120000 kPa | 744
373.15 K, 130000 kPa | 749.1
373.15 K, 140000 kPa | 753.9
383.15 K, 10000 kPa | 645.5
383.15 K, 20000 kPa | 659.9
383.15 K, 30000 kPa | 671.9
383.15 K, 40000 kPa | 682.3
383.15 K, 50000 kPa | 691.4
383.15 K, 60000 kPa | 699.6
383.15 K, 70000 kPa | 707.3
383.15 K, 80000 kPa | 714.4
383.15 K, 90000 kPa | 720.8
383.15 K, 100000 kPa | 726.9
383.15 K, 110000 kPa | 732.7
383.15 K, 120000 kPa | 738.2
383.15 K, 130000 kPa | 743.3
383.15 K, 140000 kPa | 748.2
393.15 K, 10000 kPa | 634.9
393.15 K, 20000 kPa | 650.5
393.15 K, 30000 kPa | 663.1
393.15 K, 40000 kPa | 674.3
393.15 K, 50000 kPa | 684.3
393.15 K, 60000 kPa | 693
393.15 K, 70000 kPa | 700.9
393.15 K, 80000 kPa | 708.2
393.15 K, 90000 kPa | 714.9
393.15 K, 100000 kPa | 721.2
393.15 K, 110000 kPa | 727.2
393.15 K, 120000 kPa | 732.8
393.15 K, 130000 kPa | 738.1
393.15 K, 140000 kPa | 742.9
403.15 K, 10000 kPa | 623.9
403.15 K, 20000 kPa | 640.6
403.15 K, 30000 kPa | 654.5
403.15 K, 40000 kPa | 666.1
403.15 K, 50000 kPa | 676.3
403.15 K, 60000 kPa | 685.3
403.15 K, 70000 kPa | 693.6
403.15 K, 80000 kPa | 701.1
403.15 K, 90000 kPa | 708.2
403.15 K, 100000 kPa | 714.9
403.15 K, 110000 kPa | 721.1
403.15 K, 120000 kPa | 726.9
403.15 K, 130000 kPa | 732.3
403.15 K, 140000 kPa | 737.4
